Assay results published in patent US11497752B2, “Compounds and uses thereof” (Foghorn Therapeutics Inc., priority 2018, dated 2022).

Tests used:
BRG-1 = BRG-1 (Homo sapiens, UniProt P51532); experiment: ATPase catalytic activity of BRG-1 (ADP-Glo in vitro biochemical assay)
BRM = BRM (Homo sapiens, UniProt P51531); experiment: ATPase catalytic activity of BRM (ADP-Glo in vitro biochemical assay)
Sequence of BRM (P51531 whole entry): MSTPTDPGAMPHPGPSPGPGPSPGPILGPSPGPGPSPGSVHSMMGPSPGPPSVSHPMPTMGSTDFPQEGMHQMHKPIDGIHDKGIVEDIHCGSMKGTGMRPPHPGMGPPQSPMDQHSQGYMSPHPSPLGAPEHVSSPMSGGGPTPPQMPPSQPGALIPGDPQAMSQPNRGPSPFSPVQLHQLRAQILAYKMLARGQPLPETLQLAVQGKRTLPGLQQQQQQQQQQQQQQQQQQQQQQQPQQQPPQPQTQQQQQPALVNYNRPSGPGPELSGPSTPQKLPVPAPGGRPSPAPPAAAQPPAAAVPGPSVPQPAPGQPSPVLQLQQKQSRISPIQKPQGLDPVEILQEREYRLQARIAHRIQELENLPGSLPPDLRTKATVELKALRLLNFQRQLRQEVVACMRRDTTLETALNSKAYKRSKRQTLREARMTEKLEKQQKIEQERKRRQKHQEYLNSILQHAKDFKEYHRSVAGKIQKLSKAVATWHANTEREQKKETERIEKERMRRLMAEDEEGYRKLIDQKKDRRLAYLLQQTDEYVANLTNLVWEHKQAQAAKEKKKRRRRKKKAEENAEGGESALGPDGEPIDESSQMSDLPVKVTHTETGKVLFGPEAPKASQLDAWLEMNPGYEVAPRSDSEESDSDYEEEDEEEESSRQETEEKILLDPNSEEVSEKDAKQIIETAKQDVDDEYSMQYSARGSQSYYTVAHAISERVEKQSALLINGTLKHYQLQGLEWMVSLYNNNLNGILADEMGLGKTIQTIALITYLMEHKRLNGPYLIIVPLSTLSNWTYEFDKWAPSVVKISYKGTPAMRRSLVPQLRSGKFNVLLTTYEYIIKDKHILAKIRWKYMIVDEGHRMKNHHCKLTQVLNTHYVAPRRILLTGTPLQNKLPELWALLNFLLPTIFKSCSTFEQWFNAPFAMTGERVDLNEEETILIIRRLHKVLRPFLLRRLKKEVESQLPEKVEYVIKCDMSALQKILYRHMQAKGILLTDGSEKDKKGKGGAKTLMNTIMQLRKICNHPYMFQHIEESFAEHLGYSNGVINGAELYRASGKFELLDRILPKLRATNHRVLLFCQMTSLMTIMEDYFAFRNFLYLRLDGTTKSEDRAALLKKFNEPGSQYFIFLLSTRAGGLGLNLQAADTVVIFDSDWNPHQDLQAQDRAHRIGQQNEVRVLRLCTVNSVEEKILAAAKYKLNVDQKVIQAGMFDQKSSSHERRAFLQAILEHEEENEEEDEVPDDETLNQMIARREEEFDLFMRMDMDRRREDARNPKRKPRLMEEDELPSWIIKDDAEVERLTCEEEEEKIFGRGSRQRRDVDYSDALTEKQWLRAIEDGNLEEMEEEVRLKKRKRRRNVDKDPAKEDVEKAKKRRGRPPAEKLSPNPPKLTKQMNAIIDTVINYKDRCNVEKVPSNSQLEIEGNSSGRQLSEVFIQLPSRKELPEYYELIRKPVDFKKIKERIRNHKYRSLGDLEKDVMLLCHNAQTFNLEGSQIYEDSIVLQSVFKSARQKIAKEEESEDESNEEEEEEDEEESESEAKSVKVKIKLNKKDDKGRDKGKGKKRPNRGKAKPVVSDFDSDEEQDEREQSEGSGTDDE

Sequence of BRG-1 (P51532 whole entry): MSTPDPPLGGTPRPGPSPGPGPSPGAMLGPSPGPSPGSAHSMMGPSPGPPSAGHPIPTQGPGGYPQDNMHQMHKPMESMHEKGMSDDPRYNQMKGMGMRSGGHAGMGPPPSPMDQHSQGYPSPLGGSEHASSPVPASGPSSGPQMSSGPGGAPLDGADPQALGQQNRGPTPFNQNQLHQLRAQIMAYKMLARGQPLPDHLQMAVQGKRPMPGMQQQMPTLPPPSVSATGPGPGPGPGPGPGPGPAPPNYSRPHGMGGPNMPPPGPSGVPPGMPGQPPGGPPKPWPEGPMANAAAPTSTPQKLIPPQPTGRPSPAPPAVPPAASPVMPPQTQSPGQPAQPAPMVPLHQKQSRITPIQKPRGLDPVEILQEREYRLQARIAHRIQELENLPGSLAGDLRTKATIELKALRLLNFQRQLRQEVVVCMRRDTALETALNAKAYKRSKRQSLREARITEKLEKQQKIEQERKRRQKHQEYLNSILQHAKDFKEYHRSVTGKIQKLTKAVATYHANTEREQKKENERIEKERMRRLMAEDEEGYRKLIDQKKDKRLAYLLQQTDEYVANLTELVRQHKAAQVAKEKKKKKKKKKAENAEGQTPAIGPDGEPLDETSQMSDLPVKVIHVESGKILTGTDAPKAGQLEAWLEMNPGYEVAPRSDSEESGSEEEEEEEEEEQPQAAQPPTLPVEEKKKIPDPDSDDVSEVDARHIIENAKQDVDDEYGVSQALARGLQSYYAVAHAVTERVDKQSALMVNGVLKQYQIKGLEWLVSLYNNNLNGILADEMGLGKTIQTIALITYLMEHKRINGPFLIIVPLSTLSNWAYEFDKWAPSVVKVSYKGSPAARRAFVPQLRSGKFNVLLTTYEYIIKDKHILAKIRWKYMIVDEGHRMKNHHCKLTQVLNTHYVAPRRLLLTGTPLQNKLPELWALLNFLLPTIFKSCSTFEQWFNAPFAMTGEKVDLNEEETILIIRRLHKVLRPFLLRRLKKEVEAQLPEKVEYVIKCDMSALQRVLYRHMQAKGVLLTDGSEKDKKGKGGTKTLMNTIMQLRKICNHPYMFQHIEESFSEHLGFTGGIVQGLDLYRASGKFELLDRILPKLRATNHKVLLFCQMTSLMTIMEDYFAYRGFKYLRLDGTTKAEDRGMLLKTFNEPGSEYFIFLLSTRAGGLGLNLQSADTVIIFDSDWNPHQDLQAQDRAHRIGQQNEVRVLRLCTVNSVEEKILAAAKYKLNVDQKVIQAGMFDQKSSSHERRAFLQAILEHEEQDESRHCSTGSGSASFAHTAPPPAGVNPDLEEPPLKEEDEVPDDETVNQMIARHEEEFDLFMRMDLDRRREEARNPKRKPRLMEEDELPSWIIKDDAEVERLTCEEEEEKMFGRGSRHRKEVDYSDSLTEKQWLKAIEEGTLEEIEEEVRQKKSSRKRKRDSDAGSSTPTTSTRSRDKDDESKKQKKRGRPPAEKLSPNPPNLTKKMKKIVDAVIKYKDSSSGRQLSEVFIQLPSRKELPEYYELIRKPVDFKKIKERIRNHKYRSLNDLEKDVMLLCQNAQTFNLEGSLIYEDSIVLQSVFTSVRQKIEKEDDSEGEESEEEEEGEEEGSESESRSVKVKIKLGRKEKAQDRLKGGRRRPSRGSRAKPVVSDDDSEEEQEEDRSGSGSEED

For `CC(C)c1cc(-c2cccc(-c3csc(NC(=O)CNC(=O)c4ccc(N)cc4)n3)c2)ccn1` [Compound 207, 4-amino-N-[2-[[4-[3-(2-isopropyl-4-pyridyl)phenyl]thiazol-2-yl]amino]-2-oxo-ethyl]benzamide], the IC50 (BRG-1) was less than 100 nM, the “BRG1 Max % Inhibition” value (BRG-1; Table 6) was greater than 95% and the IC50 (BRM) was less than 100 nM. The “BRM Max % Inhibition” value (BRM; Table 6) was greater than 95%.

With `CSCC[C@H](NC(=O)c1ccc(CNC(C)=O)cc1)C(=O)Nc1nc(-c2ccccc2)cs1` [Compound 74, 4-(acetamidomethyl)-N-[3-methylsulfanyl-1-[(4-phenylthiazol-2-yl)carbamoyl]propyl]benzamide] the IC50 (BRG-1) was greater than 10000 nM, the “BRG1 Max % Inhibition” value (BRG-1; Table 5) was greater than 30% and the IC50 (BRM) was greater than 10000 nM. The “BRM Max % Inhibition” value (BRM; Table 5) was greater than 50%.

With `Nc1ccc(C(=O)NCC(=O)Nc2nc(-c3cncc(-c4ccncc4)c3)cs2)cc1` [Compound 208, 4-amino-N-[2-oxo-2-[[4-[5-(4-pyridyl)-3-pyridyl]thiazol-2-yl]amino]ethyl]benzamide] the IC50 (BRG-1) was 100 to 1000 nM, the “BRG1 Max % Inhibition” value (BRG-1; Table 6) was greater than 80% and the IC50 (BRM) was 100 to 1000 nM. For the same molecule, the “BRM Max % Inhibition” value (BRM; Table 6) was greater than 90%.

In the case of `C[C@H](NC(=O)c1ccc(N)cc1)C(=O)Nc1nc(-c2cccc(-c3ccncc3)c2)cs1` [Compound 125, (S)-4-amino-N-(1-oxo-1-((4-(3-(pyridin-4-yl)phenyl)thiazol-2-yl)amino)propan-2-yl)benzamide], the IC50 (BRG-1) is reported as less than 100 nM, the “BRG1 Max % Inhibition” value (BRG-1; Table 6) is reported as greater than 95% and the IC50 (BRM) is reported as less than 100 nM. The “BRM Max % Inhibition” value (BRM; Table 6) was greater than 95%.

With `COC(C)(C)Cn1ccc(-c2cccc(-c3csc(NC(=O)CNC(=O)c4ccc(N)cc4)n3)c2)n1` [Compound 232, 4-amino-N-[2-[[4-[3-[1-(2-methoxy-2-methyl-propyl)pyrazol-3-yl]phenyl]thiazol-2-yl]amino]-2-oxo-ethyl]benzamide] the IC50 (BRG-1) was 100 to 1000 nM, the “BRG1 Max % Inhibition” value (BRG-1; Table 6) was greater than 80% and the IC50 (BRM) was 100 to 1000 nM. The “BRM Max % Inhibition” value (BRM; Table 6) was greater than 80%.

In the case of `CN(C)S(=O)(=O)c1cccc(C(=O)NCC(=O)Nc2nc(-c3cccc(CN)c3)cs2)c1` [Compound 10, N-[2-[[4-[3-(aminomethyl)phenyl]thiazol-2-yl]amino]-2-oxo-ethyl]-3-(dimethylsulfamoyl)benzamide], the IC50 (BRG-1) is reported as greater than 10000 nM, the “BRG1 Max % Inhibition” value (BRG-1; Table 5) is reported as greater than 90% and the IC50 (BRM) is reported as greater than 10000 nM. The “BRM Max % Inhibition” value (BRM; Table 5) was greater than 90%.

`Cc1cccc(-c2csc(NC(=O)CNC(=O)c3cccc(S(=O)(=O)N(C)C)c3)n2)c1` [Compound 1, 3-(dimethylsulfamoyl)-N-[2-[[4-(m-tolyl)thiazol-2-yl]amino]-2-oxo-ethyl]benzamide] was tested, and the IC50 (BRG-1) was 1000 to 10000 nM, the “BRG1 Max % Inhibition” value (BRG-1; Table 5) was greater than 70% and the IC50 (BRM) was 1000 to 10000 nM. The “BRM Max % Inhibition” value (BRM; Table 5) was greater than 95%.

With `NCCn1ccc(-c2cccc(-c3csc(NC(=O)CNC(=O)c4ccc(N)cc4)n3)c2)cc1=O` [Compound 166, 4-amino-N-(2-((4-(3-(1-(2-aminoethyl)-2-oxo-1,2-dihydropyridin-4-yl)phenyl)thiazol-2-yl)amino)-2-oxoethyl)benzamide] the IC50 (BRG-1) was 100 to 1000 nM, the “BRG1 Max % Inhibition” value (BRG-1; Table 6) was greater than 95% and the IC50 (BRM) was 100 to 1000 nM. The “BRM Max % Inhibition” value (BRM; Table 6) was greater than 95%.

For `Cn1ccc2ccc(-c3csc(NC(=O)CNC(=O)c4ccc(N)cc4)n3)cc2c1=O` [Compound 143, 4-amino-N-(2-((4-(2-methyl-1-oxo-1,2-dihydroisoquinolin-7-yl)thiazol-2-yl)amino)-2-oxoethyl)benzamide], the IC50 (BRG-1) was less than 100 nM, the “BRG1 Max % Inhibition” value (BRG-1; Table 6) was greater than 95% and the IC50 (BRM) was less than 100 nM. For the same molecule, the “BRM Max % Inhibition” value (BRM; Table 6) was greater than 95%.

With `CC(OC1CCOCC1)c1cccc(-c2csc(NC(=O)CNC(=O)c3ccc(N)cc3)n2)c1` (stereo not drawn) [Compound 235, 4-amino-N-[2-oxo-2-[[4-[3-(1-tetrahydropyran-4-yloxyethyl)phenyl]thiazol-2-yl]amino]ethyl]benzamide] the IC50 (BRG-1) was 100 to 1000 nM, the “BRG1 Max % Inhibition” value (BRG-1; Table 6) was greater than 70% and the IC50 (BRM) was 100 to 1000 nM. The “BRM Max % Inhibition” value (BRM; Table 6) was greater than 90%.

In the case of `NCCOc1cc(-c2cccc(-c3csc(NC(=O)CNC(=O)c4ccc(N)cc4)n3)c2)ccn1` [Compound 163, 4-amino-N-(2-((4-(3-(2-(2-aminoethoxy)pyridin-4-yl)phenyl)thiazol-2-yl)amino)-2-oxoethyl)benzamide], the IC50 (BRG-1) is reported as 100 to 1000 nM, the “BRG1 Max % Inhibition” value (BRG-1; Table 6) is reported as greater than 95% and the IC50 (BRM) is reported as less than 100 nM. For the same molecule, the “BRM Max % Inhibition” value (BRM; Table 6) was greater than 95%.

For `CS(=O)(=O)c1cccc(C(=O)NCC(=O)Nc2nc(-c3ccccc3)cs2)c1` [Compound 23, 3-methylsulfonyl-N-[2-oxo-2-[(4-phenylthiazol-2-yl)amino]ethyl]benzamide], the IC50 (BRG-1) was 1000 to 10000 nM, the “BRG1 Max % Inhibition” value (BRG-1; Table 5) was greater than 50% and the IC50 (BRM) was 1000 to 10000 nM. For the same molecule, the “BRM Max % Inhibition” value (BRM; Table 5) was greater than 70%.

With `NCC1CCC(c2cccc(-c3csc(NC(=O)CNC(=O)c4ccc(N)cc4)n3)c2)CC1` (stereo not drawn) [Compound 169, 4-amino-N-(2-((4-(3-(4-(aminomethyl)cyclohexyl)phenyl)thiazol-2-yl)amino)-2-oxoethyl)benzamide] the IC50 (BRG-1) was 100 to 1000 nM, the “BRG1 Max % Inhibition” value (BRG-1; Table 6) was greater than 95% and the IC50 (BRM) was 100 to 1000 nM. For the same molecule, the “BRM Max % Inhibition” value (BRM; Table 6) was greater than 95%.

With `CN(C)S(=O)(=O)c1cccc(C(=O)N[C@@H](CN)C(=O)Nc2nc(-c3ccccc3)cs2)c1` [Compound 25, (S)—N-(3-amino-1-oxo-1-((4-phenylthiazol-2-yl)amino)propan-2-yl)-3-(N,N-dimethylsulfamoyl)benzamide] the IC50 (BRG-1) was greater than 10000 nM, the “BRG1 Max % Inhibition” value (BRG-1; Table 5) was greater than 50% and the IC50 (BRM) was greater than 10000 nM. The “BRM Max % Inhibition” value (BRM; Table 5) was greater than 70%.

With `Nc1ccc(C(=O)NCC(=O)Nc2nc(-c3cccc(-c4ccncc4)c3)cs2)nc1` [Compound 184, 5-amino-N-(2-oxo-2-((4-(3-(pyridin-4-yl)phenyl)thiazol-2-yl)amino)ethyl)picolinamide] the IC50 (BRG-1) was less than 100 nM, the “BRG1 Max % Inhibition” value (BRG-1; Table 6) was greater than 70% and the IC50 (BRM) was less than 100 nM. The “BRM Max % Inhibition” value (BRM; Table 6) was greater than 80%.

For `CC(=O)NC[C@H](NC(=O)c1cccc(S(=O)(=O)N(C)C)c1)C(=O)Nc1nc(-c2ccccc2)cs1` [Compound 21, (S)—N-(3-acetamido-1-oxo-1-((4-phenylthiazol-2-yl)amino)propan-2-yl)-3-(N,N-dimethylsulfamoyl)benzamide], the IC50 (BRG-1) was greater than 10000 nM, the “BRG1 Max % Inhibition” value (BRG-1; Table 5) was greater than 60% and the IC50 (BRM) was greater than 10000 nM. For the same molecule, the “BRM Max % Inhibition” value (BRM; Table 5) was greater than 70%.

With `Cn1cnc(-c2cccc(-c3csc(NC(=O)CNC(=O)c4ccc(N)cc4)n3)c2)c1` [Compound 220, 4-amino-N-[2-[[4-[3-(1-methylimidazol-4-yl)phenyl]thiazol-2-yl]amino]-2-oxo-ethyl]benzamide] the IC50 (BRG-1) was 1000 to 10000 nM, the “BRG1 Max % Inhibition” value (BRG-1; Table 6) was greater than 80% and the IC50 (BRM) was 100 to 1000 nM. For the same molecule, the “BRM Max % Inhibition” value (BRM; Table 6) was greater than 95%.

For `NCc1ccc(C(=O)NCC(=O)Nc2nc(-c3cccc(-c4ccncc4)c3)cs2)cc1` [Compound 100, 4-(aminomethyl)-N-(2-oxo-2-((4-(3-(pyridin-4-yl)phenyl)thiazol-2-yl)amino)ethyl)benzamide], the IC50 (BRG-1) was 1000 to 10000 nM, the “BRG1 Max % Inhibition” value (BRG-1; Table 6) was greater than 80% and the IC50 (BRM) was 100 to 1000 nM. For the same molecule, the “BRM Max % Inhibition” value (BRM; Table 6) was greater than 80%.

`CSCC[C@H](NC(=O)c1cccc(S(C)(=O)=O)c1)C(=O)Nc1nc(-c2ccccc2)cs1` [Compound 3, (S)-3-(methylsulfonyl)-N-(4-(methylthio)-1-oxo-1-((4-phenylthiazol-2-yl)amino)butan-2-yl)benzamide] was tested, and the IC50 (BRG-1) was 1000 to 10000 nM, the “BRG1 Max % Inhibition” value (BRG-1; Table 5) was greater than 90% and the IC50 (BRM) was 1000 to 10000 nM. The “BRM Max % Inhibition” value (BRM; Table 5) was greater than 95%.

For `CN(C)S(=O)(=O)c1cccc(C(=O)NCC(=O)Nc2nc(-c3cccc(C#N)c3)cs2)c1` [Compound 8, N-[2-[[4-(3-cyanophenyl)thiazol-2-yl]amino]-2-oxo-ethyl]-3-(dimethylsulfamoyl)benzamide], the IC50 (BRG-1) was greater than 10000 nM, the “BRG1 Max % Inhibition” value (BRG-1; Table 5) was greater than 70% and the IC50 (BRM) was 1000 to 10000 nM. For the same molecule, the “BRM Max % Inhibition” value (BRM; Table 5) was greater than 90%.

In the case of `CSCC[C@H](NC(=O)c1ccccc1O)C(=O)Nc1nc(-c2ccccc2)cs1` [Compound 69, 2-hydroxy-N-[(1S)-3-methylsulfanyl-1-[(4-phenylthiazol-2-yl)carbamoyl]propyl]benzamide], the IC50 (BRG-1) is reported as greater than 10000 nM, the “BRG1 Max % Inhibition” value (BRG-1; Table 5) is reported as greater than 60% and the IC50 (BRM) is reported as greater than 10000 nM. For the same molecule, the “BRM Max % Inhibition” value (BRM; Table 5) was greater than 60%.

`COC(=O)Cn1cc(-c2cccc(-c3csc(NC(=O)CNC(=O)c4ccc(N)cc4)n3)c2)cn1` [Compound 180, methyl 2-(4-(3-(2-(2-(4-aminobenzamido)acetamido)thiazol-4-yl)phenyl)-1H-pyrazol-1-yl)acetate] was tested, and the IC50 (BRG-1) was 100 to 1000 nM, the “BRG1 Max % Inhibition” value (BRG-1; Table 6) was greater than 95% and the IC50 (BRM) was 100 to 1000 nM. For the same molecule, the “BRM Max % Inhibition” value (BRM; Table 6) was greater than 90%.

In the case of `CN(C)S(=O)(=O)c1cccc(C(=O)NCC(=O)Nc2nc(-c3cccc(Br)c3)cs2)c1` [Compound 7], the IC50 (BRG-1) is reported as 1000 to 10000 nM, the “BRG1 Max % Inhibition” value (BRG-1; Table 5) is reported as greater than 60% and the IC50 (BRM) is reported as 1000 to 10000 nM. The “BRM Max % Inhibition” value (BRM; Table 5) was greater than 90%.

`Nc1ccc(C(=O)N[C@@H](CO)C(=O)Nc2nc(-c3cccc(-c4ccncc4)c3)cs2)cc1` [Compound 172, (S)-4-amino-N-(3-hydroxy-1-oxo-1-((4-(3-(pyridin-4-yl)phenyl)thiazol-2-yl)amino)propan-2-yl)benzamide] was tested, and the IC50 (BRG-1) was 100 to 1000 nM, the “BRG1 Max % Inhibition” value (BRG-1; Table 6) was greater than 90% and the IC50 (BRM) was 100 to 1000 nM. For the same molecule, the “BRM Max % Inhibition” value (BRM; Table 6) was greater than 95%.

For `Nc1ccc(C(=O)NCC(=O)Nc2nc(-c3ccc4c(c3)OCC4)cs2)cc1` [Compound 112, 4-amino-N-(2-((4-(2,3-dihydrobenzofuran-6-yl)thiazol-2-yl)amino)-2-oxoethyl)benzamide], the IC50 (BRG-1) was 100 to 1000 nM, the “BRG1 Max % Inhibition” value (BRG-1; Table 6) was greater than 80% and the IC50 (BRM) was 100 to 1000 nM. The “BRM Max % Inhibition” value (BRM; Table 6) was greater than 90%.

In the case of `CC(C)(O)c1cccc(C(=O)NCC(=O)Nc2nc(-c3ccccc3)cs2)c1` [Compound 61, 3-(2-hydroxypropan-2-yl)-N-(2-oxo-2-((4-phenylthiazol-2-yl)amino)ethyl)benzamide], the IC50 (BRG-1) is reported as 1000 to 10000 nM, the “BRG1 Max % Inhibition” value (BRG-1; Table 5) is reported as greater than 50% and the IC50 (BRM) is reported as 1000 to 10000 nM. For the same molecule, the “BRM Max % Inhibition” value (BRM; Table 5) was greater than 80%.

`CN(C)S(=O)(=O)c1cccc(C(=O)NCC(=O)Nc2nc(-c3ccccc3Br)cs2)c1` [Compound 18, N-[2-[[4-(2-bromophenyl)thiazol-2-yl]amino]-2-oxo-ethyl]-3-(dimethylsulfamoyl)benzamide] was tested, and the IC50 (BRG-1) was greater than 10000 nM, the “BRG1 Max % Inhibition” value (BRG-1; Table 5) was greater than 60% and the IC50 (BRM) was greater than 10000 nM. For the same molecule, the “BRM Max % Inhibition” value (BRM; Table 5) was greater than 80%.
